Tests used:
GST tagged PIP4KtypeIIB = target: T1, GST tagged PIP4KtypeIIB (Homo sapiens, UniProt P78356); assay: Trans-FI P kinase assay PIP4K2B (PIP4KtypeIIB inhibition assay); format: biochemical; details: Table 4; compounds listed under IC50 range headings; 100 uM GTP, 5 nM PIP4KIIB; read-out: Trans-FI P kinase assays: PIP4K2B IC50
T1 construct: made in house; host or cells: E. coli
T1 sequence (P78356 1-416): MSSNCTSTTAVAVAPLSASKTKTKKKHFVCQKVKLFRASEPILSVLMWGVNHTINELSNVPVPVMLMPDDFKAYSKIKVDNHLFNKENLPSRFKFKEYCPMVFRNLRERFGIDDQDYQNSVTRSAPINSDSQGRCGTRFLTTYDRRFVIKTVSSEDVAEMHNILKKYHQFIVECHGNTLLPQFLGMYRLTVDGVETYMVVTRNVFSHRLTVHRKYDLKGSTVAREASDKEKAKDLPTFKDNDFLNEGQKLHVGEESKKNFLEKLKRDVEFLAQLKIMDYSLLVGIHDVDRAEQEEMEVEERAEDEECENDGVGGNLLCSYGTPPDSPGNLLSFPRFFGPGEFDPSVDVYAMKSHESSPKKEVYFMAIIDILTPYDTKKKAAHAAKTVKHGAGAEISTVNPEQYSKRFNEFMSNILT
Method in brief: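 Transcreener FI fluorescence, converted to GDP by calibration, tracked product from 5 nM E. coli-expressed GST-PIP4KIIB acting on 80 uM PI5P (DOPE carrier) with 100 uM GTP. Compound (top 4.8 uM final, 5% DMSO) was preincubated 1 h at 27 C before the 2 h reaction; IC50 fitted from residual activity.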

[1] = target: T2, PIP4K2A (full length protein, SignalChem) (Homo sapiens, UniProt P48426); assay: Kinase Assay PIP4K2 A (Sprint); ADP-Glo biochemical assay; details: Table 2; compounds listed under IC50 range headings
T2 construct: 4 nM PIP4K2A (full length protein, SignalChem); purchased SignalChem
T2 sequence (P48426 1-406): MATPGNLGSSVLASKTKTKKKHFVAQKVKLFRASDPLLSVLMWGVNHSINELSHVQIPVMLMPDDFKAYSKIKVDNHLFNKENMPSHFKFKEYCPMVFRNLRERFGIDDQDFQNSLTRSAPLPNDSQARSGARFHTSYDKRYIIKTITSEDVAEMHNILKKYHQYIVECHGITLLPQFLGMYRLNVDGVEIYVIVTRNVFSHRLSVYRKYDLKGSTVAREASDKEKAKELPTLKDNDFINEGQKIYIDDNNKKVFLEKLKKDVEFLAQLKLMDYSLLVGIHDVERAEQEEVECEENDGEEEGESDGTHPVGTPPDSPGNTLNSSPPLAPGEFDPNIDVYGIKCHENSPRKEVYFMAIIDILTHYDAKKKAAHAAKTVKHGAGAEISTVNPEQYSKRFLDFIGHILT
Method in brief: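 ADP-Glo luminescence detected ADP after a 1 h RT reaction started with 60 μM ATP solution. Before that, full-length PIP4K2A (4 nM in mix) with 100 μM PI(5)P diC8 was pre-incubated 15 min with compounds in MOPS buffer pH 7.2, 25 mM MgCl2, 0.005% Tween 20. IC50 derived from % inhibition relative to DMSO over 10 three-fold concentrations.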

GST tagged PIP4KtypeIIA = target: T3, GST tagged PIP4KtypeIIA (Homo sapiens, UniProt P48426); assay: ADP-glo kinase assay PIP4K 2A (PIP4KtypeIIA inhibition assay); format: biochemical; details: Table 3; compounds listed under IC50 range headings; 10 uM ATP, 0.5 nM PIP4KIIA
T3 construct: made in house; host or cells: E. coli
T3 sequence (P48426 1-406): T2 sequence (P48426 1-406)
Method in brief: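 Read-out was ADP-Glo luminescence converted to μM ADP, with IC50 plotted as % of no-inhibitor activity against log concentration. Reactions contained 10 μM ATP, 80 μM PI5P with DOPE carrier, and 0.5 nM GST-tagged PIP4KIIA (E. coli-expressed) in pH 7.3 HEPES/MgCl2 buffer with 5% DMSO. Enzyme and compound (≤4.8 μM) were preincubated 1 h at 27 °C before the 1 h reaction.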

Compound	IC50 (GST tagged PIP4KtypeIIB)	IC50 [1]	IC50 (GST tagged PIP4KtypeIIA)
O=C1CCCN1c1ccc(-c2cncc(-c3ccnc4[nH]ccc34)c2)cc1 [Example 58, 1-(4-(5-(1H-pyrrolo[2,3-b]pyridin-4-yl)pyridin-3-yl)phenyl)pyrrolidin-2-one]	100 to 1000 nM	5 to 100 nM	2500 to 5000 nM
CN(C)C(=O)c1ccc(-c2cncc(-c3ccncc3)c2)cc1 [Example 1, 4-([3,4′-bipyridin]-5-yl)-N,N-dimethylbenzamide]	> 5000 nM	< 5000 nM	> 5000 nM
CC(C)OC(=O)c1cc2c(-c3cncc(-c4ccc(N5CCCC5=O)cc4)c3)ccnc2[nH]1 [Example 161, isopropyl 4-(5-(4-(2-oxopyrrolidin-1-yl)phenyl)pyridin-3-yl)-1H-pyrrolo[2,3-b]pyridine-2-carboxylate]	10 to 100 nM	5 to 100 nM	100 to 1000 nM
COCCNC(=O)c1cc2c(-c3cnc(N)c(-c4ccc(C(=O)N(C)C)cn4)c3)ccnc2[nH]1 [Example 132, 4-(2′-amino-5-(dimethylcarbamoyl)-[2,3′-bipyridin]-5′-yl)-N-(2-methoxyethyl)-1H-pyrrolo[2,3-b]pyridine-2-carboxamide]	10 to 100 nM	100 to 1000 nM	100 to 1000 nM
Cc1ncc(-c2ccncc2)cc1-c1ccc(N2CCCC2=O)cc1 [Example 164, 1-(4-(6-methyl-3,4′-bipyridin-5-yl)phenyl)pyrrolidin-2-one]	2500 to 5000 nM	2500 to 5000 nM	> 5000 nM
Nc1ncc(Br)cc1-c1ccc(N2CCCC2=O)cn1 [Example 22, 1-(2′-amino-5′-bromo-[2,3′-bipyridin]-5-yl)pyrrolidin-2-one]	> 5000 nM	< 5000 nM	> 5000 nM
Cn1ncc2c(-c3cncc(-c4ccc(N5CCCC5=O)cc4)c3)cn(CC3CCOCC3)c(=O)c21 [Example 70, 1-methyl-4-(5-(4-(2-oxopyrrolidin-1-yl)phenyl)pyridin-3-yl)-6-((tetrahydro-2H-pyran-4-yl)methyl)-1,6-dihydro-7H-pyrazolo[3,4-c]pyridin-7-one]	100 to 1000 nM	5 to 100 nM	100 to 1000 nM
Cn1cc(-c2cnc(N)nc2)c2cc(-c3cncc(-c4ccc(N5CCCC5=O)cc4)c3)cnc21 [Example 355, 1-(4-(5-(3-(2-aminopyrimidin-5-yl)-1-methyl-1H-pyrrolo[2,3-b]pyridin-5-yl)pyridin-3-yl)phenyl)pyrrolidin-2-one]	100 to 1000 nM	5 to 100 nM	10 to 100 nM
O=C1c2cc3c(-c4cncc(-c5ccc(N6CCCC6=O)cc5)c4)ccnc3n2CCN1CC1CC1 [Example 47, 7-(cyclopropylmethyl)-4-(5-(4-(2-oxopyrrolidin-1-yl)phenyl)pyridin-3-yl)-8,9-dihydropyrido[3′,2′:4,5]pyrrolo[1,2-a]pyrazin-6(7H)-one]	10 to 100 nM	5 to 100 nM	100 to 1000 nM
O=C1CCCN1c1ccc(-c2cncc(-c3cn(Cc4ccccc4)c(=O)c4[nH]ncc34)c2)cc1 [Example 67, 6-benzyl-4-(5-(4-(2-oxopyrrolidin-1-yl)phenyl)pyridin-3-yl)-1,6-dihydro-7H-pyrazolo[3,4-c]pyridin-7-one]	100 to 1000 nM	5 to 100 nM	100 to 1000 nM
O=C1CCCN1c1ccc(-c2cncc(-c3ccnc4[nH]ncc34)c2)cc1 [Example 215, 1-(4-(5-(2H-pyrazolo[3,4-b]pyridin-4-yl)pyridin-3-yl)phenyl)pyrrolidin-2-one]	100 to 1000 nM	5 to 100 nM	100 to 1000 nM
CC(O)c1cnc2c(c1)c(-c1cncc(-c3ccc(N4CCCC4=O)cc3)c1)cn2C (stereo not drawn) [Example 62, 1-(4-(5-(5-(1-hydroxyethyl)-1-methyl-1H-pyrrolo[2,3-b]pyridin-3-yl)pyridin-3-yl)phenyl)pyrrolidin-2-one]	1000 to 2500 nM	5 to 100 nM	100 to 1000 nM
Cc1cnc2[nH]cc(-c3cncc(-c4ccc(N5CCCC5=O)cc4)c3)c2c1 [Example 31, 1-(4-(5-(5-methyl-1H-pyrrolo[2,3-b]pyridin-3-yl)pyridin-3-yl)phenyl)pyrrolidin-2-one]	100 to 1000 nM	5 to 100 nM	10 to 100 nM
CN(C)C(=O)c1cnc2c(c1)c(-c1cncc(-c3ccc(N4CCCC4=O)cc3)c1)nn2C [Example 231, N,N,1-trimethyl-3-(5-(4-(2-oxopyrrolidin-1-yl)phenyl)pyridin-3-yl)-1H-pyrazolo[3,4-b]pyridine-5-carboxamide]	1000 to 2500 nM	100 to 1000 nM	100 to 1000 nM
CN(C)C(=O)c1cnc2c(c1)c(-c1cncc(-c3ccc(N4CCCC4=O)cc3)c1)cn2C [Example 61, N,N,1-trimethyl-3-(5-(4-(2-oxopyrrolidin-1-yl)phenyl)pyridin-3-yl)-1H-pyrrolo[2,3-b]pyridine-5-carboxamide]	100 to 1000 nM	5 to 100 nM	100 to 1000 nM
O=C1CCCN1c1ccc(-c2cncc(-c3c[nH]c4ncncc34)c2)cc1 [Example 30, 1-(4-(5-(7H-pyrrolo[2,3-d]pyrimidin-5-yl)pyridin-3-yl)phenyl)pyrrolidin-2-one]	100 to 1000 nM	5 to 100 nM	100 to 1000 nM
Cc1[nH]c2ncccc2c1-c1cncc(-c2ccc(C(=O)N(C)C)cc2)c1 [Example 11, N,N-dimethyl-4-(5-(2-methyl-1H-pyrrolo[2,3-b]pyridin-3-yl)pyridin-3-yl)benzamide]	100 to 1000 nM	100 to 1000 nM	100 to 1000 nM
O=C1CCCN1c1ccc(-c2cncc(-c3ccnc4cn[nH]c34)c2)cc1 [Example 220, 1-(4-(5-(2H-pyrazolo[4,3-b]pyridin-7-yl)pyridin-3-yl)phenyl)pyrrolidin-2-one]	100 to 1000 nM	100 to 1000 nM	100 to 1000 nM
COC(=O)N1Cc2nccc(-c3cncc(-c4ccc(N5CCCC5=O)cc4)c3)c2C1 [Example 65, methyl 4-(5-(4-(2-oxopyrrolidin-1-yl)phenyl)pyridin-3-yl)-5,7-dihydro-6H-pyrrolo[3,4-b]pyridine-6-carboxylate]	1000 to 2500 nM	100 to 1000 nM	1000 to 2500 nM
CN1C(=O)Cc2c(-c3cncc(-c4ccc(N5CCCC5=O)cc4)c3)ccnc21 [Example 76, 1-methyl-4-(5-(4-(2-oxopyrrolidin-1-yl)phenyl)pyridin-3-yl)-1,3-dihydro-2H-pyrrolo[2,3-b]pyridin-2-one]	1000 to 2500 nM	100 to 1000 nM	2500 to 5000 nM
Cc1cc(N2CCCC2=O)ccc1-c1cncc(-c2ccnc3[nH]c(C(=O)N(C)C)cc23)c1 [Example 169, N,N-dimethyl-4-(5-(2-methyl-4-(2-oxopyrrolidin-1-yl)phenyl)pyridin-3-yl)-1H-pyrrolo[2,3-b]pyridine-2-carboxamide]	100 to 1000 nM	100 to 1000 nM	1000 to 2500 nM
CN1CCn2c(cc3c(-c4cncc(-c5ccc(N6CCCCCC6=O)cc5)c4)ccnc32)C1=O [Example 345, 7-methyl-4-(5-(4-(2-oxoazepan-1-yl)phenyl)pyridin-3-yl)-8,9-dihydropyrido[3′,2′:4,5]pyrrolo[1,2-a]pyrazin-6(7H)-one]	10 to 100 nM	100 to 1000 nM	100 to 1000 nM
O=C1Cc2c(-c3cncc(-c4ccc(N5CCCC5=O)cc4)c3)ccnc2N1 [Example 42, 4-(5-(4-(2-oxopyrrolidin-1-yl)phenyl)pyridin-3-yl)-1,3-dihydro-2H-pyrrolo[2,3-b]pyridin-2-one]	1000 to 2500 nM	100 to 1000 nM	2500 to 5000 nM
CN(C)C(=O)c1ccc(-c2cc(-c3ccnc4[nH]c(=O)[nH]c34)cnc2N)nc1 [Example 113, 2′-amino-N,N-dimethyl-5′-(2-oxo-2,3-dihydro-1H-imidazo[4,5-b]pyridin-7-yl)-[2,3′-bipyridine]-5-carboxamide]	100 to 1000 nM	5 to 100 nM	100 to 1000 nM

From US11919902B2, “Aryl-bipyridine amine derivatives as phosphatidylinositol phosphate kinase inhibitors” (HiberCell, Inc., priority 2017, dated 2024)
